Drawing on PubChem BioAssay (NCI), this text covers TGI and GI50 for 7 molecules.

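Protocol summary: plate cells (96-well), add compound at 5 concentrations, incubate 48 h, interpolate endpoints linearly. Here, GI50 denotes the concentration required for 50% inhibition of growth. At the TGI there is no net growth.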

Common to all, as to test: NCI tumour cell line growth inhibition, 48 h
Assay [1] concerns SNB-78 CNS.
Assay [2] concerns XF 498 CNS.
Assay [3] deals with RXF-631 renal.
Assay [4] deals with P388 leukemia.
Assay [5] relates to P388/ADR leukemia.
Assay [6] relates to SN12K1 renal.

In the case of `COc1ccccc1NC(=O)CSC(N)=O`, the TGI in assay [1] is greater than 100 µM; in assay [2], 83.6 µM.

Turning to `O=C(NCCNCCO)N/N=C/c1ccccc1`, the TGI in assay [1] and in assay [2] was greater than 100 µM throughout.

`CCOC(=O)/C(C1=N[C@H](C(=O)OCC)CS1)=C(\O)c1ccccc1`: the TGI in assay [3], in assay [1] and in assay [2] was greater than 100 µM in each case.

In the case of `NNc1nnc(-c2ccccc2)nc1Cc1ccccc1`, the TGI in assay [2] was determined as 79.3 µM.

On to `Cc1cccc(=O)c([O-])c1.Cc1cccc(=O)c([O-])c1.Cc1cccc(=O)c([O-])c1.Cc1cccc(=O)c([O-])c1.[Th+4]`, for which the TGI in assay [1] is greater than 100 µM; in assay [2], 64.9 µM. The GI50 in assay [2] was 23.3 µM.

In assay [1], `Cc1cc(=O)[nH]c(NN2C(Cl)C(=O)C2c2ccco2)n1` (stereo not drawn) yielded a TGI greater than 100 µM.

As to `O=P1(N(CCCl)CCCl)NCCCO1` (stereo not drawn), the TGI was greater than 250 µM in assay [4]; greater than 229 µM in assay [5]; greater than 250 µM in assay [3]; greater than 250 µM in assay [6]; greater than 216 µM in assay [1]; 180 µM in assay [2].
